Experimental data as given in patent US20100292132A1, “USE OF INSULIN C-PEPTIDE, ALONE OR IN COMBINATION WITH GLP-1, AS A THERAPEUTIC AGENT” (priority 2007, published 2010).

What was measured:
HCMV strain AD169 = test: HCMV plaque formation assay in MRC-5 cells; conditions: for inhibition of HCMV plaque formation as compared to the virus control experiment: 10 micrograms per ml, MRC-5 cells, 7-10 days
HIV-1IIIB = test: HIV-1 antiviral assay (CPE reduction, MTS) in CEM-SS cells; conditions: for antiviral activity of positive control compounds: HIV-1IIIB in CEM-SS cells; for reduction of cytopathic effect (CPE) in HIV-1 infected CEM-SS cells: 10 micrograms per ml, HIV-1IIIB, 6 days post-infection
murine spleen cells = test: Th1/Th2 cytokine profiling assay; format: cell-based, Balb/c mice; conditions: 10 micrograms per ml; Ovalbumin restimulation; 72 hours
Description: The Balb/c mice (originated in 1923, it is a popular strain and is used in many different research disciplines. Also classified as an inbred from the production of 20 or more successive brother-sister matings, the Balb/c mouse is albino and small in size) were immunized on Days 1, 15, and 29 with Ovalbumin (Ovalbumin is the main protein found in egg white, commonly used to stimulate an immunological reaction in test animals) in PBS (5 micrograms/injection). On day 50, spleens of the mice were harvested (3 weeks after last boost with Ovalbumin). […] Thereafter, additional Ovalbumin was added to the cells at 10 micrograms/ml for in vitro restimulation of the cells. 72 hours later, cell supernatants were harvested and assayed using the Becton Dickinson Mouse Th1/Th2 Cytokine CBA Kit. This kit can be used to measure Interleukin-2 (IL-2), Interleukin-4 (IL-4), Interleukin-5 (IL-5), Interferon-γ(IFN-γ), and Tumor Necrosis Factor-α (TNF-α) protein levels in a single sample. The kit performance has been optimized for analysis of physiologically relevant concentrations (pg/ml levels) of specific cytokine proteins in tissue culture supernatants and serum samples.

HUVEC = test: Endothelial tube formation assay; format: cell-based, human; conditions: 10 micrograms per ml; 20 hours
Experimental: The endothelial tube formation assay is based on the ability of endothelial cells to form three-dimensional capillary-like tubular structures when cultured on a gel of basement membrane extract. The endothelial tube formation assay represents a powerful model for studying inhibition and induction of angiogenesis. Pre-labeled HUVEC with Calcein AM were seeded in a 96-well culture plate coated with extracellular metrix (Chemicon international Cat. ECM625) and treated with test peptides—10 micrograms per ml—in full growth medium. Positive control wes vehicle only. The endothelial cells were allowed to form tubes foe 20 hours and were then examined under an inverted fluorescent microscope. Duplicate wells for each treatment were photographed and quantitatevily analyzed for an average tubule length using image analysis software ImageProPlus. Raw data were expressed as average tubule lenghs in pixels ± standard deviation. Statistic p values were computed using the Student's t-test.

[1] = system: Primary Human endothelial cells (HUVEC); test: Endothelial cell migration assay; format: cell-based; conditions: 10 micrograms per ml; 22 hours
Experimental: Primary Human endothelial cells (HUVEC) were seeded in insert chambers with 3 micrometer pore size of multi-transwell plate for 6 hours at 37° C. in Endothelial Cell Basal Medium (EBM) supplemented with 0.1% bovine serum albumin. Thereafter, designated concentration of testing peptides—10 micrograms per ml—was added in duplicate wells. The endothelia were allowed to migrate for 22 hours at 37° C., then, migrated cells were fixed and stained with Hoechst 33342 dye. Images of 3 fields per insert were taken and the number of migrated cells per field were quantified using the ImageProPlus software. Data were analyzed for the average number of the migrated cells and standard deviation of six data points for each treatment condition. Active test peptides against HUVEC migration was determined based on 50% inhibition of migrated cells as compared with the control. Statistic p values were computed using the Student's t-test.

[2] = system: hepatitis B virus (HBV) ayw strain; test: HBV replication assay in HepG2-2.2.15 cells (TaqMan PCR of secreted HBV DNA); format: cell-based; conditions: 10 micrograms per ml, six days

Row | Compound | antiviral activity of positive control compounds (HIV-1IIIB) | change of the production of IL-5 (murine spleen cells) | change of the production of TNF-alpha (murine spleen cells) | inhibition of the tube formation of human endothelial cells (HUVEC) | inhibition of the migration of human endothelial cells [1] | inhibition of HBV replication as compared to the virus control infection [2] | reduction of cytopathic effect (CPE) in HIV-1 infected CEM-SS cells (HIV-1IIIB) | inhibition of HCMV plaque formation as compared to the virus control experiment (HCMV strain AD169) | further results
1 | Nc1nc(O)c2ncn(COC(CO)CO)c2n1 [Ganciclovir, reference compound] | – | – | – | – | – | – | – | – | antiviral activity of positive control compound (HCMV strain AD169; HCMV in MRC-5 cells): expected levels of antiviral activity
2 | Cc1cn([C@H]2C[C@H](N=[N+]=[N-])[C@@H](CO)O2)c(=O)[nH]c1=O [AZT, reference compound] | expected levels of antiviral activity | – | – | – | – | – | – | – | –
3 | His-Ala-Glu-Gly-Thr-Phe-Thr-Ser-Asp-Val-Ser-Ser-Tyr-Leu-Glu-Gly-Gln-Ala-Ala-Lys-Glu-Phe-Ile-Ala-Trp-Leu-Val-Lys-Gly-Arg-NH2 [Peptide 2] | – | did not significantly change | did not significantly change | 1% | 6% | 37.2% | 61.1% | 2.9% | decrease of the production of IFN-gamma (murine spleen cells): 39.7%; decrease of the production of IL-2 (murine spleen cells): 45.7%; decrease of the production of IL-4 (murine spleen cells): 70.9%
4 | CC(C)(C)NC(=O)[C@@H]1CN(Cc2cccnc2)CCN1C[C@@H](O)C[C@@H](Cc1ccccc1)C(=O)N[C@H]1c2ccccc2C[C@H]1O [indinavir, reference compound] | expected levels of antiviral activity | – | – | – | – | – | – | – | –
5 | Glu-Ala-Glu-Asp-Leu-Gln-Val-Gly-Gln-Val-Glu-Leu-Gly-Gly-Gly-Pro-Gly-Ala-Gly-Ser-Leu-Gln-Pro-Leu-Ala-Leu-Glu-Gly-Ser-Leu-Gln-OH (EAEDLQVGQVELGGGPGAGSLQPLALEGSLQ; printed: Glu-Ala-Glu-Asp-Leu-Gln-Val-Gly-Gln-Val-Glu-Leu-Gly-Gly-Gly-Pro-Gly-Ala-Gly-Ser-Leu-Gln-Pro-Leu-Ala-Leu-Glu-Gly-Ser-Leu-Gln-) [Peptide 1] | – | did not significantly change | did not significantly change | 19% | 29% | 13.6% | 93.6% | did not inhibit | change of the production of IFN-gamma (murine spleen cells): did not significantly change; induction of the production of IL-2 (murine spleen cells): 24.6%; induction of the production of IL-4 (murine spleen cells): 34.7%
